Here are results for 19 molecules from ChEMBL document CHEMBL3751699, “Design, synthesis and evaluation of novel 7-aminoalkyl-substituted flavonoid derivatives with improved cholinesterase inhibitory activities” (Bioorg Med Chem, 2016).

The source made the active and inactive calls. The calls are words filed in the database; no cut-off is given here.

Broadly, the IC50 is the point on the concentration scale where inhibition reaches its midpoint. High values mean weaker potency, low ones greater potency. For orientation: Ki means the dissociation constant of the complex between target and ligand, obtained from inhibition or displacement.

Data set [1] is described as follows: Cytotoxicity against rat PC12 cells at 10 uM after 48 hrs by MTT assay. The following applies: read-out: INH. The class given is cell-based, PC-12. (Tetrazolium assays rely on reduction of a dye to a coloured formazan, in cell work by metabolically active cells.)
The nature of data set [2]: Cytotoxicity against human HepG2 cells at 10 uM after 48 hrs by MTT assay. The format is cell-based. The following applies: read-out: INH.
A further data set has as its target Cholinesterase (Equus caballus, UniProt P81908). The experiment in a line: Inhibition of equine serum BChE using BTC as substrate preincubated for 15 mins followed by substrate addition measured at 1 min intervals by Ellman method.
The nature of data set [3]: Cytotoxicity against human HepG2 cells at 1 uM after 48 hrs by MTT assay. The format is cell-based. To be noted: read-out: INH.
Data set [4] in a line: Selectivtiy index, ratio of IC50 for equine serum BChE to IC50 for electric eel AChE.
A short description of data set [5]: Cytotoxicity against rat PC12 cells at 1 uM after 48 hrs by MTT assay. The class given is cell-based, PC-12. To be noted: read-out: INH.
The target of data set [6] is T1, Acetylcholinesterase (Electrophorus electricus, UniProt O42275). The experiment in a line: Inhibition of electric eel AChE using ATC as substrate preincubated for 15 mins followed by substrate addition measured at 1 min intervals by Ellman method. In general terms: DTNB colorimetry detects thiols as they appear.
Data set [7] addresses T1, Acetylcholinesterase. Put plainly: Mixed-type inhibition of electric eel AChE using ATC as substrate assessed as hydrolysis of ATC preincubated with protein for 15 mins followed by substrate addition by Lineweaver-Burk plot analysis.
In data set [8] the target is Cholinesterase (Equus caballus) (UniProt P81908). The experiment in a line: Mixed-type inhibition of equine serum BChE using BTC as substrate assessed as hydrolysis of BTC preincubated with protein for 15 mins followed by substrate addition by Lineweaver-Burk plot analysis.
Data set [9] addresses Acetylcholinesterase (Electrophorus electricus) (UniProt O42275). Put plainly: Potency index, ratio of IC50 for rivastigmine to IC50 for test compound for inhibition of electric eel AChE by Ellman method.

Cholinesterase, sequence (P81908 whole entry): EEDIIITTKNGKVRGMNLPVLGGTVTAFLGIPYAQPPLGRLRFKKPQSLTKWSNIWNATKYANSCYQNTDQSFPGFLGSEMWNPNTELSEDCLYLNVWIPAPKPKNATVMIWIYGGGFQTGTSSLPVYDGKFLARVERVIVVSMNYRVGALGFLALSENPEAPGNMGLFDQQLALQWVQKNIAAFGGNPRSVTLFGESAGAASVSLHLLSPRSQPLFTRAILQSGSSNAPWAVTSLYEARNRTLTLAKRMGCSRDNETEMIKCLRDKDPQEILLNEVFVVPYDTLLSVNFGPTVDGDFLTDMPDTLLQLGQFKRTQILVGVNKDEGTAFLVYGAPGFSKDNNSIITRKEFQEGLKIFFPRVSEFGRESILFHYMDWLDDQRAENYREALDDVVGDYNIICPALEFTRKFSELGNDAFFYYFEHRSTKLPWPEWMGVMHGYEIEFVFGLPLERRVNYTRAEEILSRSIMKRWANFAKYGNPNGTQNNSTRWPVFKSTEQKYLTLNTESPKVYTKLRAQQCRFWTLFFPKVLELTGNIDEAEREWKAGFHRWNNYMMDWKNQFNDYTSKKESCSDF
T1 sequence (O42275 whole entry): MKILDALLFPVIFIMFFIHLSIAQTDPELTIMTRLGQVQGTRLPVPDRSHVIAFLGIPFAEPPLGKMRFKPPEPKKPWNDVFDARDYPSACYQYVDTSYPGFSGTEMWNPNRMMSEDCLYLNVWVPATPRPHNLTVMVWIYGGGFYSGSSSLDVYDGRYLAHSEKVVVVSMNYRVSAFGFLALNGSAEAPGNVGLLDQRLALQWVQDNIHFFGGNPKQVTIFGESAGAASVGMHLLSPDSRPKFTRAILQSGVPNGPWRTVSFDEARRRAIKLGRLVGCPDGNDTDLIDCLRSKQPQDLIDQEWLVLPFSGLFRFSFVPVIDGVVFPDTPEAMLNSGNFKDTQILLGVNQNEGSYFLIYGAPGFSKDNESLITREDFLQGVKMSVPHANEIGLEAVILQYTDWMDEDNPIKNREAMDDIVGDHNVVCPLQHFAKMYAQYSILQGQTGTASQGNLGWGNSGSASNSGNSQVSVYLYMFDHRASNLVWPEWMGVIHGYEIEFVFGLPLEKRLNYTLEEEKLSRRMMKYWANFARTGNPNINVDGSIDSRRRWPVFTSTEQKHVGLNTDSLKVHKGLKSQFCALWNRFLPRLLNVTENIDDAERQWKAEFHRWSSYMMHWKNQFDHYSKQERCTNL
Cholinesterase (Equus caballus), sequence (P81908 whole entry): as the sequence (P81908 whole entry) above
Acetylcholinesterase (Electrophorus electricus), sequence (O42275 24-633 limits assumed): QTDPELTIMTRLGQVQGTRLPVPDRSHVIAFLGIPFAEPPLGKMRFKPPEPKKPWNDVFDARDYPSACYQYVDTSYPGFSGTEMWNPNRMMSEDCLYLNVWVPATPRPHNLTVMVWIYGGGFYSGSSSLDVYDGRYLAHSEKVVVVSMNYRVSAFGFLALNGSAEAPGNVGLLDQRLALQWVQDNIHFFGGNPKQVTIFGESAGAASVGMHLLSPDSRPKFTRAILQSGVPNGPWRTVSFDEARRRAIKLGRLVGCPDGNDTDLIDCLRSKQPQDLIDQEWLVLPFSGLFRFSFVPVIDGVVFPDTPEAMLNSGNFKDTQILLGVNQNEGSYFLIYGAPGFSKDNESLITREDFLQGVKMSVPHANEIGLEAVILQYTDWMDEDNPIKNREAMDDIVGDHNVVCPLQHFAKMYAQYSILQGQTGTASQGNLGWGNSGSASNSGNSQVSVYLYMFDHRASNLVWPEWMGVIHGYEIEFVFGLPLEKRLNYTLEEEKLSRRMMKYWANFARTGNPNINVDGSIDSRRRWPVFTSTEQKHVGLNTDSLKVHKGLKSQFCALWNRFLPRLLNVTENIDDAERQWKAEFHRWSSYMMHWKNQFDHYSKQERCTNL

As to `O=c1cc(-c2ccccc2O)oc2cc(OCCCCCCCCN3CCCC3)ccc12`, the results for the cytotoxicity at 48 h, 10 µM in data set [1] and in data set [2] were 6.61% and 60.6%, respectively. In addition, the IC50 was 1.26 µM against Cholinesterase and 3070 nM against Acetylcholinesterase [6]. Moreover, the cytotoxicity at 48 h, 1 µM in data set [3] is 5.92%; in data set [5], -7.71%. Moreover, the Ratio IC50 in data set [4] is 0.41.

`COc1ccc(-c2cc(=O)c3ccc(OCCCCCCCCN4CCCC4)cc3o2)cc1`: the values for the cytotoxicity at 48 h, 10 µM in data set [1] and in [2] were -6.72% and 21.5%, respectively. In addition, the IC50 came out at 5.42 µM against Cholinesterase and 1700 nM against Acetylcholinesterase [6]. The values for the cytotoxicity at 48 h, 1 µM in data set [3] and in [5] were 6.69% and -0.15%, respectively. For the same molecule, in [4], the Ratio IC50 came out at 3.19.

Regarding `COc1cc(-c2cc(=O)c3ccc(OCCCCCCCCN4CCCC4)cc3o2)cc(OC)c1OC`, the values for the cytotoxicity at 48 h, 10 µM in data set [1] and in [2] were -13.8% and 41.4%, respectively. The IC50 against Cholinesterase is 2.2 µM; on Acetylcholinesterase [6], 1080 nM. For the same molecule, the cytotoxicity at 48 h, 1 µM was 16.3% in data set [3] and -4.47% in data set [5]. Moreover, the Ratio IC50 in data set [4] turned out to be 2.04.

For the molecule `COc1ccc(-c2cc(=O)c3ccc(OCCCCCCCCN4CCCC4)cc3o2)cc1OC`, the cytotoxicity at 48 h, 10 µM was -2.94% in data set [1] and 76% in [2]. The IC50 against Cholinesterase was 3.43 µM; against Acetylcholinesterase [6], 830 nM. Moreover, the figures for the cytotoxicity at 48 h, 1 µM in [3] and in [5] were 13.5% and 7.29%, respectively. Further, the Ratio IC50 in data set [4] amounted to 4.13.

On to `O=c1cc(-c2ccccc2OCc2ccccc2)oc2cc(OCCCCCCCCN3CCCC3)ccc12`, for which the cytotoxicity at 48 h, 10 µM in [1] worked out at 22.9%; in data set [2] it was 34.1%. The IC50 against Cholinesterase was determined as 5.26 µM; on Acetylcholinesterase [6], 2010 nM. Further, the cytotoxicity at 48 h, 1 µM stood at 19.7% in data set [3] and 0.47% in data set [5]. Besides, in data set [4], the Ratio IC50 came out at 2.62.

`COc1cccc(-c2cc(=O)c3ccc(OCCCCCCCCN4CCCC4)cc3o2)c1`: the cytotoxicity at 48 h, 10 µM in data set [1] is -18.2%; in data set [2] it was 23.7%. Also, the IC50 is 2.29 µM on Cholinesterase and 670 nM against Acetylcholinesterase [6]. Further, the cytotoxicity at 48 h, 1 µM in [3] was found to be 16.2%; in [5], 3.53%. In [4], the Ratio IC50 was determined as 3.42.

Regarding `O=c1cc(-c2ccc(Br)cc2)oc2cc(OCCCCCCCCN3CCCC3)ccc12`, the results for the cytotoxicity at 48 h, 10 µM in [1] and in data set [2] were -12.5% and 10.8%, respectively. Moreover, the IC50 was 10.2 µM on Cholinesterase and 2150 nM against Acetylcholinesterase [6]. In addition, the cytotoxicity at 48 h, 1 µM was 13.3% in [3] and 2.5% in data set [5]. In addition, in data set [4], the Ratio IC50 worked out at 4.77.

Take `O=c1cc(-c2ccc(N3CCCC3)cc2)oc2cc(OCCCCCCCCN3CCCC3)ccc12`: the cytotoxicity at 48 h, 10 µM is -9.56% in data set [1] and 19% in [2]. Further, the IC50 at Cholinesterase came out at 4.1 µM; on Acetylcholinesterase [6] it was 1380 nM. The cytotoxicity at 48 h, 1 µM in [3] is 5.74%; in data set [5] it was 0.29%. Besides, the Ratio IC50 in data set [4] amounted to 2.97.

Consider `O=c1cc(-c2cccc(OCc3ccccc3)c2)oc2cc(OCCCCCCCCN3CCCC3)ccc12`, for which the cytotoxicity at 48 h, 10 µM in data set [1] is -2.53%; in data set [2], 30.6%. Moreover, the IC50 is above 25 µM on Cholinesterase and 1580 nM at Acetylcholinesterase [6]. The cytotoxicity at 48 h, 1 µM in data set [3] was determined as 6.63%; in data set [5], 0.79%. Also, the Ratio IC50 in data set [4] is above 15.8.

For the molecule `O=c1cc(-c2cccc3ccccc23)oc2cc(OCCCCCCCCN3CCCC3)ccc12`, the cytotoxicity at 48 h, 10 µM in [1] was 9.01%; in data set [2], 18.9%. For the same molecule, the Ki at Acetylcholinesterase [7] was found to be 206 nM. Also, the IC50 against Cholinesterase amounted to 0.42 µM; against Acetylcholinesterase [6] it was 720 nM. Besides, the results for the cytotoxicity at 48 h, 1 µM in data set [3] and in data set [5] were 4.42% and 3%, respectively. The Ratio IC50 in data set [4] was 0.58. In addition, the inhibition result in data set [8] is “Active”.

For `O=c1cc(-c2cccc(O)c2)oc2cc(OCCCCCCCCN3CCCC3)ccc12`, the results for the cytotoxicity at 48 h, 10 µM in [1] and in [2] were -6.56% and 43.9%, respectively. The figures for the IC50 at Cholinesterase and against Acetylcholinesterase [6] were 4.92 µM and 1120 nM, respectively. The cytotoxicity at 48 h, 1 µM in data set [3] was 19%; in data set [5], -4.43%. Also, the Ratio IC50 in data set [4] is 4.39.

As for `O=c1cc(-c2ccccc2)oc2cc(OCCCCCCCCN3CCCC3)ccc12`, the cytotoxicity at 48 h, 10 µM is 1.37% in [1] and 8.97% in data set [2]. Further, the IC50 against Cholinesterase is 2.24 µM; at Acetylcholinesterase [6], 1090 nM. In addition, the cytotoxicity at 48 h, 1 µM is 11.3% in [3] and -2.83% in data set [5]. The Ratio IC50 in [4] was found to be 2.05.

As for `Cc1ccc(-c2cc(=O)c3ccc(OCCCCCCCCN4CCCC4)cc3o2)cc1`, the figures for the cytotoxicity at 48 h, 10 µM in data set [1] and in [2] were -0.03% and 77.1%, respectively. In addition, the IC50 against Cholinesterase is 1.92 µM; on Acetylcholinesterase [6] it was 1250 nM. In addition, the results for the cytotoxicity at 48 h, 1 µM in [3] and in data set [5] were 9.17% and -0.55%, respectively. Moreover, the Ratio IC50 in data set [4] was determined as 1.54.

Turning to `Nc1c2c(nc3ccccc13)CCCC2` [TACRINE], the cytotoxicity at 48 h, 10 µM in [1] was 10.2%. The cytotoxicity at 48 h, 1 µM in data set [5] amounted to 4.62%.

With `O=c1cc(-c2ccc(-c3ccccc3)cc2)oc2cc(OCCCCCCCCN3CCCC3)ccc12`, the cytotoxicity at 48 h, 10 µM in data set [1] amounted to 68.9%; in data set [2], 71.9%. Also, the values for the IC50 at Cholinesterase and against Acetylcholinesterase [6] were above 25 µM and 4800 nM, respectively. The figures for the cytotoxicity at 48 h, 1 µM in data set [3] and in [5] were 13.9% and 0.46%, respectively. Also, the Ratio IC50 in data set [4] is above 5.21.

In the case of `O=c1cc(-c2ccc(Cl)cc2)oc2cc(OCCCCCCCCN3CCCC3)ccc12`, the cytotoxicity at 48 h, 10 µM was -1.7% in [1] and 25.7% in data set [2]. Also, the IC50 against Cholinesterase was 3.46 µM; against Acetylcholinesterase [6], 1120 nM. Also, the cytotoxicity at 48 h, 1 µM worked out at 6.39% in [3] and 6.27% in data set [5]. Besides, in data set [4], the Ratio IC50 was 3.09.

Consider `O=c1cc(-c2ccc(OCc3ccccc3)cc2)oc2cc(OCCCCCCCCN3CCCC3)ccc12`, for which the cytotoxicity at 48 h, 10 µM in data set [1] is 1.37%; in [2] it was 54.3%. Besides, the values for the IC50 against Cholinesterase and against Acetylcholinesterase [6] were above 25 µM and 1900 nM, respectively. Further, the cytotoxicity at 48 h, 1 µM in [3] was 10.4%; in [5], -2.83%. The Ratio IC50 in data set [4] is above 13.2.

Regarding `COc1ccccc1-c1cc(=O)c2ccc(OCCCCCCCCN3CCCC3)cc2o1`, the cytotoxicity at 48 h, 10 µM in [1] was found to be 3.4%; in data set [2], 24.3%. The values for the Ratio IC50 in [9] and in [4] were 10 and 1.19, respectively. The IC50 was 0.76 µM at Cholinesterase and 640 nM against Acetylcholinesterase [6]. For the same molecule, the cytotoxicity at 48 h, 1 µM came to 5.9% in [3] and 3.08% in data set [5].

In the case of `O=c1cc(-c2ccc(O)cc2)oc2cc(OCCCCCCCCN3CCCC3)ccc12`, the figures for the cytotoxicity at 48 h, 10 µM in [1] and in data set [2] were 7.42% and 21.4%, respectively. Besides, the IC50 at Cholinesterase came out at 4.58 µM; against Acetylcholinesterase [6], 1210 nM. Besides, the cytotoxicity at 48 h, 1 µM is 18.5% in data set [3] and 0.7% in data set [5]. For the same molecule, in data set [4], the Ratio IC50 amounted to 3.79.
